Consider one compound from US12121596B2, “Near infrared fluorescent dyes, formulations and related methods” (Washington University, priority 2019, dated 2024).

The test system of series [1] is breast cancer patient-derived xenograft. Kind of series: In vivo NIR imaging of tumor retention. On the set-up: species or system mice. As to the method:
To establish the various tumor models, nude, Balb/c, or C57BL6 mice were injected with 10^5-10^7 tumor cells subcutaneously on unilateral or bilateral flanks. In some cases, spontaneous tumor models were used. Animals injected subcutaneously with saline served as sham tumor controls. For near-infrared imaging, 100 μL volumes of 60 μM LS301 or cypate in PBS were injected intravenously by lateral tail vein, and animals were imaged using a Pearl Small Animal Imager (LI-COR Biotechnology, Lincoln, NE, USA) at the indicated time points. In some experiments, probes were formulated in 1% albumin in PBS. Animals were shaved using commercially available hair removal equipment and products before imaging. For experiments involving further tissue analysis, animals were anesthetized with isoflurane and euthanized by cervical dislocation under anesthesia. Organs were harvested by surgical dissection. For quantitative organ biodistribution studies, individual regions of interest were drawn around each organ of interest, and fluorescence was quantified using the Pearl Small Animal Imager software.

Series [2] concerns lysates of insulin-stimulated, pANXA2-expressing 4T1 cells. Kind of series: Binding to lysates of insulin-stimulated 4T1 cells. The settings on record: read-out: apparent Kd, 4T1 cell lysates. On the set-up: species or system murine. As to the method:
MST was performed using the Monolith NT.115 (Nanotemper Technologies, Munich, Germany). The appropriate agent(s) and LS301 stock samples were denatured in MST-1 buffer (50 mM Tris-HCl, pH 7.4; 150 mM NaCl; 10 mM MgCl2; 2% DMSO; 0.1% Tween-20; 4% SDS, 4 mM dithiothreitol (DTT)) at 97° C. for 10 min. Fluorescence was assessed in MST-2 buffer (50 mM Tris-HCl, pH 7.4; 150 mM NaCl; 10 mM MgCl2). The protein was prepared in MST-2 buffer, and 20 μL serial dilutions were made with protein concentration ranging from 3.05 pM to 50 nM (pANXA2) or 3.81 pM to 62.5 nM (ANXA2). All samples were loaded into NT.115 standard capillaries. The analysis was performed at 37° C., 30% LED power, 60% MST power, and a constant LS301 concentration of 20 nM. The apparent Kd values were calculated from fragment concentration-dependent changes in normalized fluorescence (Fraction Bound) of LS301 after 5 seconds of thermophoresis based on mass action law using the MO Affinity Analysis v2.3 software.
For Western blot analysis of insulin/PP2-induced change in cellular pANXA2 levels, 4T1 cells were treated with insulin or PP2 as above, lysed, and subjected to SDS-PAGE analysis. […]

A short description of series [3]: Solubility and dilution stability of LS301 stock solutions. The format is physicochemical. The note with it: transparent solution, no precipitate after centrifugation. As to the method: At room temperature (˜25° C.), 200 μL of DMSO was added to 0.5 mg LS301 and vortexed for about 1 minute to homogenize. The solution was centrifuged to remove any non-dissolved components. The concentration was measured via absorbance.
Generally, solution concentrations ranged between 290 and 330 μM. This concentrated solution was diluted dropwise into 800 μL phosphate-buffered saline (PBS) calculated such that the final concentration was 60 μM LS301 and that the final concentration was 20% DMSO/80% PBS by volume (“20% DMSO”).
A 1:1 PEG400/Ethanol solution (v/v) was prepared by mixing 4 mL of PEG400 and 4 mL of ethanol and vortexing at high speed for 1 minute. 200 μL of this 1:1 solution was added to about 0.5 mg of LS301 to produce a transparent solution (>300 μM). No precipitate was observed after centrifugation.
LS301's solubility in ethanol ranged near the cutoff for producing a 20% ethanol/PBS solution. […] The 1:1 PEG400/ethanol solution could maintain stability up to about 1-to-16 dilution. In vivo, a screening test was done by IV injection of 60 μM solution into a Balb/c mouse with two 4T1luc tumors dorsally injected. […] To confirm LS301's multitumor affinity in the new solvent, solutions were tested against HT1080, A431, and DBT tumor-bearing mice.

Series [4] deals with pANXA2 (Homo sapiens, UniProt P07355). As to the kind of experiment: Microscale thermophoresis (MST), pANXA2 binding. The settings on record: read-out: apparent Kd, pANXA2. An excerpt:
Recombinant proteins and antibodies. Recombinant annexin A2, annexin A2 with glutathione-S-transferase (GST) tag, annexin A1, and annexin A3 proteins were purchased from MyBioSource, Inc. (San Diego, CA, USA). Purified ANXA2 protein and purified pANXA2 protein were gifts from Dr. Gabriel Bimme (Beth Israel Deaconess Medical Center, Boston, MA). Rabbit monoclonal anti-annexin A2 antibody (D11G2, #8235), Rabbit monoclonal anti-Rab5 (C8B1, #3547), and rabbit monoclonal anti-Rab7 (D95F2, #936 7) primary antibodies were purchased from Cell Signaling Technology, Inc. (Danvers, MA, USA). Mouse monoclonal anti-β-actin 2A3 (sc-517582), mouse monoclonal anti-pANXA2 antibody (11.Tyr 24) (sc-135752), rabbit polyclonal anti-NOS2 (C-19, sc-649), rabbit polyclonal anti-ARG1 (H-52, sc-20150) antibodies, and protein A/G agarose were purchased from Santa Cruz Biotechnology, Inc. (Dallas, TX, USA). […]
MST was performed using the Monolith NT.115 (Nanotemper Technologies, Munich, Germany). […] Fluorescence was assessed in MST-2 buffer (50 mM Tris-HCl, pH 7.4; 150 mM NaCl; 10 mM MgCl2). […] The apparent Kd values were calculated from fragment concentration-dependent changes in normalized fluorescence (Fraction Bound) of LS301 after 5 seconds of thermophoresis based on mass action law using the MO Affinity Analysis v2.3 software.
On the technique in general: In MST a laser heats a spot of the sample, and binding alters the fluorescence response.

Positions of bridges follow the written chain, without caps; N, C: chain ends. Non-standard residues stand in square brackets, D forms with d. Residues, ends and D or L forms follow the SMILES beside them. *: point of attachment. X1 = CC1(C)C(/C=C/C=C/C=C/C=C2/N(CCC(=O)*)c3ccc4ccccc4c3C2(C)C)=[N+](CCC(=O)[O-])c2ccc3ccccc3c21

Chain of pANXA2 (P07355 2-339 limits assumed): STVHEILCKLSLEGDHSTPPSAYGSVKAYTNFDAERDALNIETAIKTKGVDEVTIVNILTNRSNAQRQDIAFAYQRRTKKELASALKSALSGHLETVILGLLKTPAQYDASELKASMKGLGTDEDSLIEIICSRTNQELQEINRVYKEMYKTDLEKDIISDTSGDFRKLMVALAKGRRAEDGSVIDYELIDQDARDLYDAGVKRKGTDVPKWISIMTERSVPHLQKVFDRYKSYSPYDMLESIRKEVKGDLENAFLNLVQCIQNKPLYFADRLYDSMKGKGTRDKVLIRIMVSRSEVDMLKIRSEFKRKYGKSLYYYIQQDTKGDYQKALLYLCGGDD

Turning to `CC1(C)C(/C=C/C=C/C=C/C=C2/N(CCC(=O)N[C@@H]3CSSC[C@@H](C(=O)N[C@@H](CCCCN)C(=O)O)NC(=O)[C@@H]4CCCN4C(=O)[C@H](CO)NC(=O)[C@H](CC(=O)O)NC(=O)[C@H](CCCNC(=N)N)NC(=O)CNC3=O)c3ccc4ccccc4c3C2(C)C)=[N+](CCC(=O)[O-])c2ccc3ccccc3c21` [LS301, cypate-cyclic (DCys-Gly-Arg-Asp-Ser-Pro-Cys)-Lys-OH] (X1-[dC]GRDSPCK-OH; disulfide 1-7), the “time remaining in the tumor lesion” value in series [1] (breast cancer patient-derived xenograft) was “over 96 hours”. In addition, the tumor coverage entry in series [1] (small tumors (<5 mm)) is “about 100%”. For the same compound, the values for the Kd in series [2] and in series [4] were 17 ± 4 pM and 75 ± 2 pM, respectively. Also, in series [3], the “solution concentration in 1:1 PEG400/Ethanol” value was more than 300 µM.
